# US20250026748A1, “N-(5-SUBSTITUTED-[(1,3,4-THIADIAZOLYL) OR (THIAZOLYL)])(SUBSTITUTED)CARBOXAMIDE COMPOUNDS AND USE THEREOF FOR INHIBITING HUMAN POLYMERASE THETA” (Repare Therapeutics Inc., priority 2021, published 2025)
# Biological target: PolQ ATPase enzyme (1-894) (Homo sapiens (Human), UniProt O75417)
# Experiment: Polθ ATPase enzymatic assay (0.5 nM enzyme concentration), ADP-Glo
# Assay type: biochemical
# Conditions: average IC50; 0.5 nM PolQ ATPase enzyme (1-894)
# Method in brief: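 Enzyme (0.5 nM) pre-incubated 15 min at rt with 10-point inhibitor series in 50 mM Tris pH 7.5, 10% glycerol, 5 mM DTT, 10 mM MgCl2, 0.1 mg/ml BSA; reaction started with 20 nM fork DNA and 100 μM ATP, run 180 min at rt. ADP-Glo luminescence; IC50 from 4-parameter variable-slope fit.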
# Sequence of PolQ ATPase enzyme (1-894) (O75417 1-894): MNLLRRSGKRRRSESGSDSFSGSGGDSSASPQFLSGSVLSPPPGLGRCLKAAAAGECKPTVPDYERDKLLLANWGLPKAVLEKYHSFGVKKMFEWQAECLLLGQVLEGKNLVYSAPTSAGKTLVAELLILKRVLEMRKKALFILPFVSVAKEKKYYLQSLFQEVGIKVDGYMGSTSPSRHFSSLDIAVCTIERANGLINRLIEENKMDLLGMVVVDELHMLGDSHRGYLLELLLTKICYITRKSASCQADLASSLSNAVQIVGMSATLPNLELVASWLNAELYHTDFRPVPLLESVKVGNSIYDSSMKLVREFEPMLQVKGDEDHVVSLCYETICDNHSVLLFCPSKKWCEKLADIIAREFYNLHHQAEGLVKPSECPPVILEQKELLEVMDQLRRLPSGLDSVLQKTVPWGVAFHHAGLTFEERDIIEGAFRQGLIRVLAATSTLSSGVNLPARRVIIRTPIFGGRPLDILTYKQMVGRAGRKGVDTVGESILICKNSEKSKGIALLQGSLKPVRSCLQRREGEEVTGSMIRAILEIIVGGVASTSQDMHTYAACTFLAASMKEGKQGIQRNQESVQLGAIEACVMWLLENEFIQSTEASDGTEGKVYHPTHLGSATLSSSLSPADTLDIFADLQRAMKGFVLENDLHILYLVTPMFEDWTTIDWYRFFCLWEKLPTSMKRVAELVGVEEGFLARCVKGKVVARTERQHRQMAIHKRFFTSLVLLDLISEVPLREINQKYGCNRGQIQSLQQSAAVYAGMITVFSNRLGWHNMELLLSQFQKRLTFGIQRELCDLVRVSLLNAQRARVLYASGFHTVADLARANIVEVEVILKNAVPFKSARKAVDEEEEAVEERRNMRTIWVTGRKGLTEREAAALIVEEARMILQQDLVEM
row,IC50 [nM],SMILES
1,0.63,"COc1ccc(C#N)cc1-c1cnccc1C(=O)Nc1nnc(C#CC2CC23CC3)s1 (stereo not shown) [Compound 6, 3-(5-cyano-2-methoxyphenyl)-N-(5-(spiro[2.2]pentan-1-ylethynyl)-1,3,4-thiadiazol-2-yl)isonicotinamide]"
2,0.53,"COc1cnc(Cl)cc1-c1cnccc1C(=O)Nc1nnc([C@@H]2C[C@H]2c2ccc(C#N)cc2)s1 [Compound 26, 2′-chloro-N-(5-((1R,2R)-2-(4-cyanophenyl)cyclopropyl)-1,3,4-thiadiazol-2-yl)-5′-methoxy-[3,4′-bipyridine]-4-carboxamide]"
3,4.2,COc1c(F)cccc1-c1cnccc1C(=O)Nc1nnc(C#CC2CC2)s1 [Compound 13]
4,1.5,COc1ccc(C#N)cc1-c1cnccc1C(=O)Nc1nnc(C#CC2CCC2)s1 [Compound 5]
5,3.5,"COc1ccc(C#N)cc1-c1cnccc1C(=O)Nc1nnc(C#CC2CC2)s1 [Compound 12, 3-(5-cyano-2-methoxyphenyl)-N-(5-(cyclopropylethynyl)-1,3,4-thiadiazol-2-yl)isonicotinamide]"
6,0.78,COc1ccc(C(F)(F)F)cc1-c1cnccc1C(=O)Nc1nnc(C#CC2CC2)s1 [Compound 24]
7,2.2,"COc1ccc(C#N)cc1-c1cnccc1C(=O)Nc1nnc(C2C[C@H]2c2ccc(C#N)cc2)s1 (mixture of isomers) [Compound 2, N-(5-((1R,2R)-2-(4-cyanophenyl)cyclopropyl)-1,3,4-thiadiazol-2-yl)-3-(5-cyano-2-methoxyphenyl)isonicotinamide]"
8,1.3,COc1cnc(Cl)cc1-c1cnccc1C(=O)Nc1nnc(C#CC2CC2)s1 [Compound 25]
9,3.2,COc1ccc(F)cc1-c1cn(C)c(=O)cc1C(=O)Nc1nnc(C#Cc2cc(C)[nH]n2)s1 [Compound 17]
10,< 0.25,COc1cnc(C(F)F)cc1-c1cc(C#CCN2CCOCC2)ccc1C(=O)Nc1nnc(C#CC2CC2)s1 [Compound 219]
11,2.9,COc1cnc(C(F)F)cc1-c1cc(N(C)C#N)ccc1C(=O)Nc1nnc(C#CC2CC2)s1 [Compound 203]
12,< 0.25,COc1cnc(C(F)F)cc1-c1cc(CC(=O)N(C)C)ncc1C(=O)Nc1ncc(C#CC2CC2)s1 [Compound 200]
13,< 0.25,Cc1ccc(Cl)cc1-c1cnccc1C(=O)Nc1nnc(C#CC2CC2)s1 [Compound 43]
14,0.88,COc1cnc(Cl)nc1-c1cc(-c2nnc(C)o2)ccc1C(=O)Nc1nnc(C#CC2CC2)s1 [Compound 402]
15,5.8,C#C[C@H]1C[C@@H]1c1nnc(NC(=O)c2cnc(CC#N)cc2-c2cc(C(F)F)ncc2OC)s1 [Compound 190]
16,14,O=C(Nc1ncc(C#CC2CC2)s1)c1cc(=O)n(Cc2nccs2)cc1-c1cc(C(F)F)ccc1Cl [Compound 208]
17,0.37,COc1cnc(C(F)F)cc1-c1cc(-c2ccn(C)n2)c(F)cc1C(=O)Nc1nnc(C#CC2CC2)s1 [Compound 457]
18,33,COc1ccc(C(F)(F)F)cc1-c1cn(C)c(=O)cc1C(=O)Nc1nnc(C#CC2CCCOC2)s1 (stereo not shown) [Compound 336]

row,IC50 [nM],SMILES
1,< 0.25,COc1ccc(C(F)F)cc1-c1cnccc1C(=O)Nc1nnc(C#CC2CC2)s1 [Compound 56]
2,0.1,COc1cnc(C(F)F)cc1-c1cc(-n2ccnc(C)c2=O)ncc1C(=O)Nc1nnc(C#CC2CC2)s1 [Compound 458]
3,< 0.25,"COc1cnc(Cl)cc1-c1cc(CC(=O)N(C)C)ccc1C(=O)Nc1nnc(C#CC2CC2)s1 [Compound 35, 2-(2-chloro-5-methoxypyridin-4-yl)-N-(5-(cyclopropylethynyl)-1,3,4-thiadiazol-2-yl)-4-(2-(dimethylamino)-2-oxoethyl)benzamide]"
4,< 0.25,COc1cnc(C(F)F)cc1-c1cc(-n2ncc(OC)c(Cl)c2=O)ncc1C(=O)Nc1nnc(C#CC2CC2)s1 [Compound 452]
5,1.2,COc1cnc(Cl)cc1-c1cn(C)c(=O)cc1C(=O)Nc1nnc(C#Cc2cc(C)[nH]n2)s1 [Compound 103]
6,< 0.25,Cc1nnc(-n2cc(-c3cc(C(F)(F)F)ccc3Cl)c(C(=O)Nc3ncc(C#CC4CC4)s3)cc2=O)o1 [Compound 464]
7,< 0.25,COc1cnc(C(F)F)cc1-c1cc(N2CCCC(F)C2=O)ncc1C(=O)Nc1nnc(C#CC2CC2)s1 (stereo not shown) [Compound 352]
8,< 0.25,COc1cnc(C(F)F)cc1-c1cc(-c2ccc(C)cn2)ncc1C(=O)Nc1nnc(C#CC2CC2)s1 [Compound 436]
9,< 0.25,COc1ccc(C(F)F)cc1-c1cnccc1C(=O)Nc1nnc(C#CC2CC23CC3)s1 (stereo not shown) [Compound 55]
10,< 0.25,COc1cnc(C(F)F)cc1-c1cc(-c2nn(C)cc2C)ncc1C(=O)Nc1nnc(C#CC2CC2)s1 [Compound 351]
11,0.63,"COc1cnc(C(F)F)cc1-c1cnccc1C(=O)Nc1nnc(C#CC2CC2)s1 [Compound 31, N-(5-(cyclopropylethynyl)-1,3,4-thiadiazol-2-yl)-2′-(difluoromethyl)-5′-methoxy-[3,4′-bipyridine]-4-carboxamide]"
12,0.26,"COc1ccc(C(F)(F)F)cc1-c1cnccc1C(=O)Nc1nnc(C#Cc2cc(C)[nH]n2)s1 [Compound 27, 3-[2-methoxy-5-(trifluoromethyl)phenyl]-N-[5-[2-(5-methyl-1H-pyrazol-3-yl)ethynyl]-1,3,4-thiadiazol-2-yl]pyridine-4-carboxamide]"
13,1.1,COc1cnc(C(F)F)cc1-c1cc(C#CC2(OC)CCOCC2)ccc1C(=O)Nc1nnc(C#CC2CC2)s1 [Compound 246]
14,< 0.25,Cc1nnc(Cn2cc(-c3cc(C(F)(F)F)ccc3Cl)c(C(=O)Nc3nnc(C#CC4CC4)s3)cc2=O)o1 [Compound 61]
15,0.61,COc1cnc(C(F)F)cc1-c1cc(CC#N)ncc1C(=O)Nc1nnc(C#CC2CC2)s1 [Compound 226]
16,0.47,COc1cnc(Cl)cc1-c1cn(CC(N)=O)c(=O)cc1C(=O)Nc1nnc(C#CC2CC2)s1 [Compound 105]
17,2.5,COc1cnc(C(F)F)cc1-c1cn2ncnc2cc1C(=O)Nc1nnc(C#CC2CC23CC3)s1 (stereo not shown) [Compound 48]
18,0.27,COc1cnc(C(F)F)cc1-c1cc(N2CCN(C)C(C)(C)C2=O)ncc1C(=O)Nc1nnc(C#CC2CC2)s1 [Compound 367]

row,SMILES,IC50 [nM]
1,C#C[C@@H]1CC1c1nnc(NC(=O)c2cnc(-c3ccn(C)n3)cc2-c2cc(C(F)F)ncc2OC)s1 (stereo partly shown) [Compound 154],< 0.25

# Biological target: Polθ ATPase enzyme (1-894) (Homo sapiens (Human), UniProt O75417)
# Sequence (O75417 1-894): as above
# Experiment: Polθ ATPase enzymatic assay (3 nM enzyme concentration), ADP-Glo
# Assay type: biochemical
# Conditions: not given
# Method: Polθ ATPase enzyme (1-894) at 3 nM is incubated with a 10-point concentration response of inhibitors for 15 min at rt in the following buffer: 50 mM Tris Cl pH 7.5, 10% glycerol, 5 mM DTT, 10 mM MgCl2, 0.1 mg/ml BSA. Following pre-incubation with inhibitors, DNA (Fork C) at 20 nM and ATP at 100 μM are added to start the reaction. Enzymatic reaction proceeds at rt for 60 min. ATP consumption is measured using the ADP-Glo assay from Promega. Luminescence is read on the Envision and IC50 are determined using the variable slope 4-parameters equation.
# DNA (Fork C) is made by annealing 3 different oligos containing the following sequence of nucleotides:
# Oligos are annealed by heating at 95° C. for 5 min in the following buffer (10 mM Tris-HCl pH7.5, 50 mM NaCl, 1 mM EDTA) and cooled to rt. […]
row,IC50 [nM],SMILES
1,3.3,"COc1ccc(C#N)cc1-c1cnccc1C(=O)Nc1nnc(C2C[C@H]2c2ccc(C#N)cc2)s1 (mixture of isomers) [Compound 2, N-(5-((1R,2R)-2-(4-cyanophenyl)cyclopropyl)-1,3,4-thiadiazol-2-yl)-3-(5-cyano-2-methoxyphenyl)isonicotinamide]"

# Same assay, conditions: read-out: IC50 (nM) [PolQ] 3 nM; average IC50; 3 nM PolQ ATPase enzyme (1-894)
row,IC50 [nM],SMILES
1,2,"COc1ccc(C#N)cc1-c1cnccc1C(=O)Nc1nnc(C#CC2CC23CC3)s1 (stereo not shown) [Compound 6, 3-(5-cyano-2-methoxyphenyl)-N-(5-(spiro[2.2]pentan-1-ylethynyl)-1,3,4-thiadiazol-2-yl)isonicotinamide]"
2,12,"COc1ccc(C#N)cc1-c1cnccc1C(=O)Nc1nnc(C#CC2COC2)s1 [Compound 7, 3-(5-cyano-2-methoxyphenyl)-N-(5-(oxetan-3-ylethynyl)-1,3,4-thiadiazol-2-yl)isonicotinamide]"
3,48,"COc1ccc(F)cc1-c1cnccc1C(=O)Nc1nnc(C#Cc2cnn(CC#N)c2)s1 [Compound 8, N-(5-((1-(cyanomethyl)-1H-pyrazol-4-yl)ethynyl)-1,3,4-thiadiazol-2-yl)-3-(5-fluoro-2-methoxyphenyl)isonicotinamide]"
4,204,COc1ccc(F)cc1-c1cn(C)c(=O)cc1C(=O)Nc1nnc(C#Cc2cnn(C3CCCNC3)c2)s1 (stereo not shown) [Compound 18]
5,134,COc1ccc(C#N)cc1-n1cncc1C(=O)Nc1nnc(C#CC2CC2)s1 [Compound 23]
6,15,COc1ccc(C#N)cc1-c1cn(C)c(=O)cc1C(=O)Nc1nnc(C2C[C@H]2c2ccc(C#N)cc2)s1 (stereo partly shown) [Compound 15]
7,2.6,"COc1cnc(Cl)cc1-c1cnccc1C(=O)Nc1nnc([C@@H]2C[C@H]2c2ccc(C#N)cc2)s1 [Compound 26, 2′-chloro-N-(5-((1R,2R)-2-(4-cyanophenyl)cyclopropyl)-1,3,4-thiadiazol-2-yl)-5′-methoxy-[3,4′-bipyridine]-4-carboxamide]"
8,6.9,COc1c(F)cccc1-c1cnccc1C(=O)Nc1nnc(C#CC2CC2)s1 [Compound 13]
9,54,COc1ccc(F)cc1-c1cnccc1C(=O)Nc1nnc(C#Cc2cnc(C#N)c(OC)c2)s1 [Compound 10]
10,92,"COc1ccc(F)cc1-c1cnccc1C(=O)Nc1nnc([C@@H]2C[C@H]2c2nc3ccccc3n2C)s1 [Compound 4, 3-(5-fluoro-2-methoxyphenyl)-N-(5-((1R,2R)-2-(1-methyl-1H-benzo[d]imidazol-2-yl)cyclopropyl)-1,3,4-thiadiazol-2-yl)isonicotinamide]"
11,12,COc1ccc(F)cc1-n1cncc1C(=O)Nc1nnc(C#CC2CC2)s1 [Compound 22]
12,2.9,COc1ccc(C#N)cc1-c1cnccc1C(=O)Nc1nnc(C#CC2CCC2)s1 [Compound 5]
13,27,COc1ccc(F)cc1-c1cn(C)c(=O)cc1C(=O)Nc1nnc(C#Cc2ccn(C)n2)s1 [Compound 19]
14,2,"COc1ccc(C#N)cc1-c1cnccc1C(=O)Nc1nnc(C#CC2CC2)s1 [Compound 12, 3-(5-cyano-2-methoxyphenyl)-N-(5-(cyclopropylethynyl)-1,3,4-thiadiazol-2-yl)isonicotinamide]"
15,< 1.5,COc1ccc(C(F)(F)F)cc1-c1cnccc1C(=O)Nc1nnc(C#CC2CC2)s1 [Compound 24]
16,1.5,COc1cnc(Cl)cc1-c1cnccc1C(=O)Nc1nnc(C#CC2CC2)s1 [Compound 25]
17,5.4,COc1ccc(F)cc1-c1cn(C)c(=O)cc1C(=O)Nc1nnc(C#Cc2cc(C)[nH]n2)s1 [Compound 17]
18,23,"COc1ccc(F)cc1-c1cnccc1C(=O)Nc1nnc([C@@H]2C[C@H]2c2ccn(C)n2)s1 [Compound 3, 3-(5-fluoro-2-methoxyphenyl)-N-(5-((1R,2R)-2-(1-methyl-1H-pyrazol-3-yl)cyclopropyl)-1,3,4-thiadiazol-2-yl)isonicotinamide]"
19,117,COc1ccc(F)cc1-c1cnccc1C(=O)Nc1nnc(C#Cc2ccc3nccn3n2)s1 [Compound 11]
20,21,COc1ccc(C#N)cc1-c1cn(C)c(=O)cc1C(=O)Nc1nnc(C#CC2CC2)s1 [Compound 20]
21,139,COc1ccc(F)cc1-c1cnccc1C(=O)Nc1nnc(C#Cc2cnc3cnccn23)s1 [Compound 14]
22,12,COc1ccc(F)cc1-c1cn(C)c(=O)cc1C(=O)Nc1nnc(C#CC2CC2)s1 [Compound 21]
23,33,COc1ccc(C#N)cc1-c1cnccc1C(=O)Nc1nnc(C#CC2(N)CC2)s1 [Compound 9]
